Assay: Single-dose pharmacokinetics of omeprazole
Format: in vivo, healthy Chinese volunteers
Settings: for AUC0-t / AUC0-∞ / Cmax: 20 mg single oral dose, mean ± SD; for Tmax: human, plasma, oral, 20 mg

## COc1ccc2[nH]c([S+]([O-])Cc3ncc(C)c(OC)c3C)nc2c1 (centres unmarked) [omeprazole]
CYP2C19 *1/*1 (n = 263)
  AUC0-t: 466.2 ± 493.2 ng·h/mL
  AUC0-∞: 499.3 ± 498.4 ng·h/mL
  Cmax: 309 ± 227 ng/mL
CYP2C19 *1/*2 (n = 241)
  AUC0-t: 766.4 ± 529.4 ng·h/mL
  AUC0-∞: 817.8 ± 524.4 ng·h/mL
  Cmax: 449 ± 309 ng/mL
CYP2C19 *1/*3 (n = 48)
  AUC0-t: 707.8 ± 490.3 ng·h/mL
  AUC0-∞: 808.0 ± 545.9 ng·h/mL
  Cmax: 440 ± 390 ng/mL
CYP2C19 *1/*17 (n = 6)
  AUC0-t: 363.8 ± 232.6 ng·h/mL
  AUC0-∞: 366.5 ± 233.4 ng·h/mL
CYP2C19 *2/*2 (n = 74)
  AUC0-t: 3379 ± 1421 ng·h/mL
  AUC0-∞: 3790 ± 1311 ng·h/mL
  Cmax: 1130 ± 992 ng/mL
CYP2C19 *2/*3 (n = 17)
  AUC0-t: 3908 ± 1560 ng·h/mL
  AUC0-∞: 4221 ± 1453 ng·h/mL
  Cmax: 1040 ± 550 ng/mL
CYP2C19 *2/*17 (n = 2)
  AUC0-t: 507.3 ± 150.3 ng·h/mL
  AUC0-∞: 693.0 ± 109.6 ng·h/mL
  Cmax: 530 ± 344 ng/mL
CYP2C19 *3/*3 (n = 2)
  AUC0-t: 3913 ± 493.0 ng·h/mL
  AUC0-∞: 4444 ± 793.4 ng·h/mL
  Cmax: 884 ± 575 ng/mL
CYP2C19 *3/*17 (n = 3)
  AUC0-t: 544.8 ± 14.52 ng·h/mL
  AUC0-∞: 547.0 ± 14.47 ng·h/mL
CYP2C19 phenotype IM (n = 294)
  Cmax: 447 ± 322 ng/mL
CYP2C19 phenotype NM (n = 263)
  AUC0-t: 466.16 ± 493.21 ng·h/mL
  Cmax: 308 ± 227 ng/mL
CYP2C19 phenotype PM (n = 93)
  AUC0-t: 3487.32 ± 1440.13 ng·h/mL
  AUC0-∞: 3883.09 ± 1331.02 ng·h/mL
  Cmax: 1110 ± 916 ng/mL
CYP2C19 phenotype RM (n = 6)
  AUC0-t: 363.77 ± 232.56 ng·h/mL
PM versus IM
  Cmax increase in PM: 2.5 fold
After administration in all groups (four phenotype groups)
  Tmax: 3.89 to 4.45 h
After administration in all subjects (nine diplotype groups)
  Tmax: 1.33 to 4.6 h

— PMC9199891 (Clinical and Translational Science, 2022)
